From patent US6004965A, “Sulfonamides” (Hoffmann-La Roche Inc., priority 1994, dated 1999) come the findings set out here.

pIC50: −log10 of the molar value.

The pIC50 is the negative decadic logarithm of the IC50, by convention in mol/L.

The target of test [1] is T1, endothelin-induced contractions in isolated rat aorta rings (Rattus norvegicus, UniProt P26684).
T1 construct: cut out from the thorax aorta of adult Wistar-Kyoto rats; from tissue; host or cells: thoracic aorta rings of adult Wistar-Kyoto rats, endothelium removed
T1 sequence (P26684 21-426): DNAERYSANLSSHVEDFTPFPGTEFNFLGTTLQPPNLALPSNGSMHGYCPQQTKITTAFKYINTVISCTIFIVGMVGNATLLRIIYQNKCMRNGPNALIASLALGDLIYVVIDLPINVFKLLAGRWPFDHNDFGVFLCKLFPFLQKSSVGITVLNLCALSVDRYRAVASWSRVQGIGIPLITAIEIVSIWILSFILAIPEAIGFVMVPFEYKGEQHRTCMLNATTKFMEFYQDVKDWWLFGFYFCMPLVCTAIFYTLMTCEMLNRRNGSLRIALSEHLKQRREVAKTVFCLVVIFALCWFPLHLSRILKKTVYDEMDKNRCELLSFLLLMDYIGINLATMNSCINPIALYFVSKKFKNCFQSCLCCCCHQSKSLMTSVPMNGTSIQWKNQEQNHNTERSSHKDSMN
As to the kind of experiment: Inhibition of endothelin-induced contractions in isolated rat aorta rings. It counts as cell-based, rat (Wistar-Kyoto). The conditions noted are these: read-out: pA2 value; Dose ratio (switch to the right) (converted). How it is done:
Rings with a length of 5 mm were cut out from the thorax aorta of adult Wistar-Kyoto rats. The endothelium was removed by lightly rubbing the internal surface. Each ring was immersed at 37° C. in 10 ml of Krebs-Henseleit solution in an isolated bath while gassing with 95% O2 and 5% CO2. The isometric stretching of the rings was measured. The rings were stretched to a pre-tension of 3 g.
The corresponding pA2 value, which is a measure of the activity of the test compound, was calculated using a computer programme according to the following equation from the "dose ratio" DR for each individual dosage-activity curve.
pA2 =log(DR-1)-log(antagonist-concentration)

The target in test [2] is T2, human ETA receptors (Homo sapiens, UniProt P25101).
T2 construct: made in house; host or cells: baculovirus-infected insect cells (membrane preparation)
T2 sequence (P25101 21-427): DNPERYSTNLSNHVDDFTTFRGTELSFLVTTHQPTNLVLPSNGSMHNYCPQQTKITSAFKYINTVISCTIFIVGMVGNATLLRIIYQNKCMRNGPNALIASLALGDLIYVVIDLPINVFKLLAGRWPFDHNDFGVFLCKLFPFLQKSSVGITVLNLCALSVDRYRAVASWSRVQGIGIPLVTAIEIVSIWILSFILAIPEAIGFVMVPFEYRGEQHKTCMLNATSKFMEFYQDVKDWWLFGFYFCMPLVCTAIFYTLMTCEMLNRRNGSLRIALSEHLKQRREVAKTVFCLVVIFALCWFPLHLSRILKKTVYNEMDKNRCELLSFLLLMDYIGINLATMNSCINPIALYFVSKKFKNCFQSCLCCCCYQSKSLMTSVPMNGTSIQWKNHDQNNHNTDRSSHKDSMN
Description: Inhibition of endothelin binding to recombinant ETA receptors. The conditions noted are these: baculovirus-insect cell membranes, 20 pM 125I-endothelin, 20° C. for 2 hours or 4° C. for 24 hours, read-out: IC50 (inhibition of specific binding of 125I-endothelin). How it is done: I: […] A cDNA coding for human ETA receptors of human placenta was cloned ([…]. Yang, Y. Furuichi and C. Miyamoto, BBRC 180, 1265-1272) and expressed in the baculovirus-insect cell system. Baculovirus-infected insect cells from a 23 l fermenter are centrifuged off (3000×g, 15 minutes, 4° C.) 60 hours after the infection, re-suspended in Tris buffer (5 mM, pH 7.4, 1 mM MgCl2) and again centrifuged. After a further re-suspension and centrifugation the cells are suspended in 800 ml of the same buffer and […] at -120° C. The cells disintegrate when the suspension in this hypotonic buffer mixture is thawed. After a repeated freeze-drying/thawing cycle the suspension is homogenized and centrifuged (25000×g, 15 minutes, 4° C.). After suspension in Tris buffer (75 mM, pH 7.4, 25 mM MgCl2, 250 mM sucrose) 1 ml aliquots (protein content about 3.5 mg/ml) are stored at -85° C. […] The incubation is carried out at 20° C. for 2 hours or at 4° C. for 24 hours. The separation of free and membrane-bound radio-ligands is carried out by filtration over a glass fibre filter.

On to `COc1ccccc1Oc1c(NS(=O)(=O)c2ccc(C(C)(C)C)cc2)nc(-c2ccnc(-c3nnn[nH]3)c2)nc1OCCOC(=O)Nc1ccccn1` [Example 4, 2-[6-(4-tert-butyl-phenylsulphonylamino)-5-(2-methoxy-phenoxy)-2-(2-1H-tetrazol-5-yl-pyridin-4-yl)-pyrimidin-4-yl-oxy]-ethyl pyridin-2-ylcarbamate], for which, in test [1], the Kb is 0.251 nM. The negative-log IC50 (pIC50) in test [2] is 8.22.

Regarding `COc1ccccc1Oc1c(NS(=O)(=O)c2ccc(C)cn2)nc(-c2ccnc(-c3nnn[nH]3)c2)nc1OCCO` [Example 29, 5-methyl-pyridine-2-sulphonic acid 6-(2-hydroxy-ethoxy)-5-(2-methoxy-phenoxy)-2-(2-1H-tetrazol-5-yl-pyridin-4-yl)-pyrimidin-4-ylamide], in test [1], the Kb is 0.1 nM. Besides, the pIC50 in test [2] was 8.40.

In the case of `COc1ccccc1Oc1c(NS(=O)(=O)c2ccccc2)nc(-c2ccnc(-c3nnn[nH]3)c2)nc1OCCOC(=O)Nc1ccccn1` [Example 35, 2-[5-(2-methoxy-phenoxy)-6-phenyl-sulphonylamino-2-(2-1H-tetrazol-5-yl-pyridin-4-yl)-pyrimidin-4-yloxy]-ethyl pyridin-2-ylcarbamate], the Kb in test [1] is 0.316 nM. The pIC50 in test [2] is 8.70.

As to `COc1ccccc1Oc1c(NS(=O)(=O)c2ccc(C)cc2)nc(-c2ccnc(-c3nnn[nH]3)c2)nc1OCCOC(=O)Nc1ccccn1` [Example 36, 2-[5-(2-methoxy-phenoxy)-6-(4-methyl-phenylsulphonylamino)-2-(2-1H-tetrazol-5-yl-pyridin-4-yl)-pyrimidin-4-yloxy]-ethyl pyridin-2-ylcarbamate], the Kb in test [1] is 0.398 nM. Besides, the pIC50 in test [2] is 8.10.

In the case of `COc1ccccc1Oc1c(NS(=O)(=O)c2ccc(SC)cc2)nc(-c2ccnc(-c3nnn[nH]3)c2)nc1OCCOC(=O)Nc1ccccn1` [Example 40, 2-[5-(2-methoxy-phenoxy)-6-(4-methylsulphanylphenylsulphonylamino)-2-(2-1H-tetrazol-5-yl-pyridin-4-yl)-pyrimidin-4-yloxy]-ethyl pyridin-2-ylcarbamate], the Kb in test [1] is 0.0631 nM. Further, in test [2], the pIC50 is 8.10.

Regarding `COc1ccccc1Oc1c(NS(=O)(=O)c2ccc3c(c2)OCO3)nc(-c2ccnc(-c3nnn[nH]3)c2)nc1OCCOC(=O)Nc1ccccn1` [Example 41, 2-[6-(1,3-benzodioxol-5-yl-sulphonylamino)-5-(2-methoxy-phenoxy)-2-(2-1H-tetrazol-5-yl-pyridin-4-yl)-pyrimidin-4-yloxy]-ethyl pyridin-2-ylcarbamate], the Kb in test [1] was 0.0251 nM. The pIC50 in test [2] was 9.00.
